Assay results taken from the NIST ThermoML archive (doi:10.1016/j.jct.2017.02.004).
Numbers after ± are expanded uncertainties.

Experiments:
[1] = 100 kPa, Liquid; for speed of sound: Frequency=3 MHz, Single path-length method; for mass density: Vibrating tube method
[2] = mn = molality of the nth substance listed, in mol/kg; settings: 100 kPa, Liquid; for speed of sound: Frequency=3 MHz, Single path-length method; for mass density: Vibrating tube method

CCCCn1cc[n+](C)c1.F[B-](F)(F)F [1-butyl-3-methylimidazolium tetrafluoroborate]
[1]
Settings	mass density [kg/m3]	speed of sound [m/s]
288.15 K	1209.05 ± 0.77	1591 ± 1.8
293.15 K	1205.5 ± 0.77	1578.9 ± 1.8
298.15 K	1201.96 ± 0.76	1566.9 ± 1.8
303.15 K	1198.42 ± 0.76	1555.1 ± 1.8
308.15 K	1194.87 ± 0.75	1543.4 ± 1.8

CCCCn1cc[n+](C)c1.F[B-](F)(F)F [1-butyl-3-methylimidazolium tetrafluoroborate] + [Cl-].[Li+]
[2], m2 = 0
Settings	mass density [kg/m3]	speed of sound [m/s]
288.15 K	1209.05 ± 0.77	1591 ± 1.8
293.15 K	1205.5 ± 0.77	1578.9 ± 1.8
298.15 K	1201.96 ± 0.76	1566.9 ± 1.8
303.15 K	1198.42 ± 0.76	1555.1 ± 1.8
308.15 K	1194.87 ± 0.75	1543.4 ± 1.8

[Cl-].[Li+] [lithium chloride] + CCCCn1cc[n+](C)c1.F[B-](F)(F)F
[2]
Settings	mass density, 288.15 K [kg/m3]	mass density, 293.15 K [kg/m3]	mass density, 298.15 K [kg/m3]	mass density, 303.15 K [kg/m3]	mass density, 308.15 K [kg/m3]	speed of sound, 288.15 K [m/s]	speed of sound, 293.15 K [m/s]	speed of sound, 298.15 K [m/s]	speed of sound, 303.15 K [m/s]	speed of sound, 308.15 K [m/s]
m1 = 0.0999	1211.1 ± 0.77	1207.56 ± 0.77	1204.03 ± 0.76	1200.53 ± 0.76	1196.98 ± 0.75	1595.5 ± 1.8	1583.3 ± 1.8	1571.2 ± 1.8	1559.4 ± 1.8	1547.7 ± 1.8
m1 = 0.1499	1212.17 ± 0.77	1208.61 ± 0.77	1205.08 ± 0.76	1201.61 ± 0.76	1198.07 ± 0.75	1597.7 ± 1.8	1585.4 ± 1.8	1573.3 ± 1.8	1561.4 ± 1.8	1549.7 ± 1.8
m1 = 0.2	1213.24 ± 0.78	1209.68 ± 0.77	1206.14 ± 0.76	1202.69 ± 0.76	1199.16 ± 0.75	1599.7 ± 1.8	1587.3 ± 1.8	1575.2 ± 1.8	1563.3 ± 1.8	1551.5 ± 1.8
m1 = 0.2501	1214.33 ± 0.78	1210.73 ± 0.77	1207.22 ± 0.77	1203.79 ± 0.76	1200.27 ± 0.76	1601.7 ± 1.8	1589.2 ± 1.8	–	1565.1 ± 1.8	1553.2 ± 1.8
m1 = 0.3003	1215.46 ± 0.78	1211.88 ± 0.77	1208.31 ± 0.77	1204.94 ± 0.76	1201.37 ± 0.76	1603.5 ± 1.8	1591 ± 1.8	1578.7 ± 1.8	1566.7 ± 1.8	1554.9 ± 1.8
m1 = 0.3498	1216.56 ± 0.78	1212.93 ± 0.77	1209.36 ± 0.77	1206.04 ± 0.76	1202.5 ± 0.76	1605.3 ± 1.8	1592.6 ± 1.8	1580.3 ± 1.8	1568.2 ± 1.8	1556.2 ± 1.8
